Earlier results, collected in patent US8470863B2, “Derivatives and analogs of chroman as functionally selective ALPHA2C adrenoreceptor agonists” (Merck Sharp & Dohme, Corp., priority 2007, dated 2013).

Tested on: Coloboma mice
Settings: mice mutated to exhibit spontaneous hyperactivity; Bruno et al. 2006

Structure (SMILES): COC(=O)[C@@H]1[C@H]2C[C@H]3c4[nH]c5ccccc5c4CCN3C[C@@H]2CC[C@@H]1O [yohimbine]
- Effect on hyperactivity of Coloboma mice: ameliorated hyperactivity
